Assay results reported in patent US20240217968A1, “PHARMACEUTICAL COMPOUND” (DUKE STREET BIO LIMITED, priority 2021, published 2024).

What follows are compounds tested against T1, recombinant human Flag-tagged PARP7 (amino acids 456-657) (Homo sapiens, UniProt Q7Z3E1) (assay: PARP7 biochemical DELFIA assay (auto-MARylation)). Details: DELFIA readout, IC50 class.
T1 construct: recombinant human Flag-tagged PARP7 (amino acids 456-657)
T1 sequence (Q7Z3E1 456-657): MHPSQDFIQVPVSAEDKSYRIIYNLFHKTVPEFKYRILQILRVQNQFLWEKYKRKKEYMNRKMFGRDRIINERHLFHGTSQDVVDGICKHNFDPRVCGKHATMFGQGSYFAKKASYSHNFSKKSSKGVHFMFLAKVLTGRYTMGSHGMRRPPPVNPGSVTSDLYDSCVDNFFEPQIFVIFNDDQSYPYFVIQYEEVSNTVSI
Method in brief: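 Flag-PARP7 (456-657), 12.5-37.5 nM stock, captured on anti-FLAG wells, preincubated 30 min with compound, then auto-MARylated with biotin-NAD+ (15 μM stock) in HEPES pH 7.5/NaCl/DTT/BSA/Tween for 2-3 h at room temperature. NAD+ quench; Eu-streptavidin DELFIA read, Ex337/Em620 nm.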

IC50	Structure (SMILES)
≤ 100 nM	CC(COCCC(=O)N1CCN(c2ncc(C(F)(F)F)cn2)CC1)c1cc(F)cc2c(=O)[nH]ncc12 (centres unmarked) [Compound 120]
100 to 1000 nM	O=C1NC(=O)c2c(CCOCCC(=O)N3CCN(c4ncc(C(F)(F)F)cn4)CC3)cccc21 [Compound 121]
≤ 100 nM	CC(OCCCC(=O)N1CCN(c2ncc(C(F)(F)F)cn2)CC1)c1cccc2c(=O)[nH]ncc12 (centres unmarked) [Compound 123]
≤ 100 nM	O=C(CCCOCc1cccc2c(=O)[nH]ncc12)N1CCN(c2ncc(C(F)(F)F)cn2)CC1 [Compound 124]
≤ 100 nM	O=C(CCOCCn1c(CO)cc2c(=O)[nH]ncc21)N1CCN(c2ncc(C(F)(F)F)cn2)CC1 [Compound 125]
100 to 1000 nM	CC1CCc2c(cn[nH]c2=O)N1CCOCCC(=O)N1CCN(c2ncc(C(F)(F)F)cn2)CC1 (centres unmarked) [Compound 126]
≤ 100 nM	Cc1nn(CCOCCC(=O)N2CCN(c3ncc(C(F)(F)F)cn3)CC2)c2cn[nH]c(=O)c12 [Compound 127]
100 to 1000 nM	O=C1NCCn2c(CCOCCC(=O)N3CCN(c4ncc(C(F)(F)F)cn4)CC3)ccc21 [Compound 128]
≤ 100 nM	CC(OCCCC(=O)N1CCN(c2ncc(C(F)(F)F)cn2)CC1)c1cc(F)cc2c(=O)[nH]ncc12 (centres unmarked) [Compound 129]
≤ 100 nM	O=C(CCOCCn1cc(C(F)(F)F)c2c(=O)[nH]ncc21)N1CCN(c2ncc(C(F)(F)F)cn2)CC1 [Compound 131, 1-(2-(3-oxo-3-(4-(5-(trifluoromethyl)pyrimidin-2-yl)piperazin-1-yl)propoxy)ethyl)-3-(trifluoromethyl)-1,5-dihydro-4H-pyrrolo[2,3-d]pyridazin-4-one]
≤ 100 nM	O=C(CCOCCn1ncc2c(=O)[nH]ncc21)N1CCN(c2ccc(C(F)(F)F)cn2)CC1 [Compound 132]
≤ 100 nM	O=C(CCOCCn1ncc2c(=O)[nH]ncc21)N1CCN(c2ccc(Cl)cn2)CC1 [Compound 133]
≤ 100 nM	Cc1cc(CCOCCC(=O)N2CCN(c3ncc(C(F)(F)F)cn3)CC2)n2c1C(=O)NCC2 [Compound 134]
100 to 1000 nM	COCc1cc2c(=O)[nH]ncc2n1CCOCCC(=O)N1CCN(c2ncc(C(F)(F)F)cn2)CC1 [Compound 135]
100 to 1000 nM	NCc1cc2c(=O)[nH]ncc2n1CCOCCC(=O)N1CCN(c2ncc(C(F)(F)F)cn2)CC1 [Compound 136]
≤ 100 nM	CC1CN(C(=O)CCOCCn2ncc3c(=O)[nH]ncc32)CCN1c1ncc(C(F)(F)F)cn1 (centres unmarked) [Compound 137]
≤ 100 nM	CC1CN(C(=O)CCOCCn2ncc3c(=O)[nH]ncc32)CCN1c1ncc(C(F)(F)F)cn1 (centres unmarked) [Compound 138]
≤ 100 nM	O=C(CCOCCc1cccc2c(=O)[nH]ncc12)N1CCC(c2nc3ccccc3o2)CC1 [Compound 139]
≤ 100 nM	O=C(CCOCCc1cccc2c(=O)[nH]ncc12)N1CCC(c2nc3ccccc3s2)CC1 [Compound 140]
≤ 100 nM	O=C(CCOCCc1cccc2c(=O)[nH]ncc12)N1CCN(c2nc3ccccc3s2)CC1 [Compound 141]
≤ 100 nM	CC1CN(c2ncc(C(F)(F)F)cn2)CCN1C(=O)CCOCCn1ncc2c(=O)[nH]ncc21 (centres unmarked) [Compound 142]
≤ 100 nM	CC1CN(c2ncc(C(F)(F)F)cn2)CCN1C(=O)CCOCCn1ncc2c(=O)[nH]ncc21 (centres unmarked) [Compound 143]

IC50	Structure (SMILES)
≤ 100 nM	O=C(CCOCCc1csc2c(=O)[nH]c(=O)[nH]c12)N1CCN(c2ncc(C(F)(F)F)cn2)CC1 [Compound 144]
1000 to 10000 nM	O=C1NCCCc2c(CCOCCC(=O)N3CCN(c4ncc(C(F)(F)F)cn4)CC3)cccc21 [Compound 145]
≤ 100 nM	O=C(CCOCCc1cccc2c(=O)[nH]ncc12)N1CCN(c2nc3ccccc3o2)CC1 [Compound 146]
≤ 100 nM	O=C(CCOCCn1ncc2c(=O)[nH]ncc21)N1CCN(c2ncc(Cl)cn2)CC1 [Compound 147]
≤ 100 nM	O=C(CCOCCc1cccc2c(=O)[nH]ncc12)N1CCN(c2ncc(C(F)(F)F)cn2)C(CO)C1 (centres unmarked) [Compound 148]
≤ 100 nM	CC(C)c1cn(CCOCCC(=O)N2CCN(c3ncc(C(F)(F)F)cn3)CC2)c2cn[nH]c(=O)c12 [Compound 150]
≤ 100 nM	Cc1cn(C(C)COCCC(=O)N2CCN(c3ncc(C(F)(F)F)cn3)CC2)c2cn[nH]c(=O)c12 (centres unmarked) [Compound 152]
≤ 100 nM	O=C(CCOCCn1nc(C(F)(F)F)c2c(=O)[nH]ncc21)N1CCN(c2ncc(C(F)(F)F)cn2)CC1 [Compound 153, 1-(2-(3-oxo-3-(4-(5-(trifluoromethyl)pyrimidin-2-yl)piperazin-1-yl)propoxy)ethyl)-3-(trifluoromethyl)-1,5-dihydro-4H-pyrazolo[3,4-d]pyridazin-4-one]
≤ 100 nM	CC(C)c1nn(CCOCCC(=O)N2CCN(c3ncc(C(F)(F)F)cn3)CC2)c2cn[nH]c(=O)c12 [Compound 154]
≤ 100 nM	CC(COCCn1ncc2c(=O)[nH]ncc21)C(=O)N1CCN(c2ncc(C(F)(F)F)cn2)CC1 (centres unmarked) [Compound 155]
100 to 1000 nM	CC(COCCn1ncc2c(=O)[nH]ncc21)C(=O)N1CCN(c2ncc(C(F)(F)F)cn2)CC1 (centres unmarked) [Compound 156]
≤ 100 nM	O=C(CCOCCN1C(=O)CCc2c1cn[nH]c2=O)N1CCN(c2ncc(C(F)(F)F)cn2)CC1 [Compound 157]
≤ 100 nM	O=C(CCOCCc1ccc(F)c2c(=O)[nH]ncc12)N1CCN(c2ncc(C(F)(F)F)cn2)CC1 [Compound 158]
100 to 1000 nM	Nc1nc(N2CCN(C(=O)CCOCCc3cccc4c(=O)[nH]ncc34)CC2)ncc1C(F)(F)F [Compound 159]
≤ 100 nM	CC1CN(c2ncc(C(F)(F)F)cn2)CCN1C(=O)CCOCCn1nc(C(F)(F)F)c2c(=O)[nH]ncc21 (centres unmarked) [Compound 160]
≤ 100 nM	CC1CN(c2ncc(C(F)(F)F)cn2)CCN1C(=O)CCOCCn1nc(C(F)(F)F)c2c(=O)[nH]ncc21 (centres unmarked) [Compound 161]
100 to 1000 nM	CC(COCCC(=O)N1CCN(c2ncc(C(F)(F)F)cn2)CC1)c1cc(Cl)cc2c(=O)[nH]ncc12 (centres unmarked) [Compound 162]
≤ 100 nM	CC(COCCC(=O)N1CCN(c2ncc(C(F)(F)F)cn2)CC1)c1cc(Cl)cc2c(=O)[nH]ncc12 (centres unmarked) [Compound 163]
≤ 100 nM	CCc1cn(CCOCCC(=O)N2CCN(c3ncc(C(F)(F)F)cn3)CC2)c2cn[nH]c(=O)c12 [Compound 164]
≤ 100 nM	O=C(OCCCCc1cccc2c(=O)[nH]ncc12)N1CCN(c2ncc(C(F)(F)F)cn2)CC1 [Compound 165]
100 to 1000 nM	CN(CCCC(=O)N1CCN(c2ncc(C(F)(F)F)cn2)CC1)Cc1cccc2c(=O)[nH]ncc12 [Compound 167]
≤ 100 nM	CC(COCCC(=O)N1CCN(c2ncc(C(F)(F)F)cn2)CC1)n1ncc2c(=O)[nH]ncc21 (centres unmarked) [Compound 168]

IC50	Structure (SMILES)
100 to 1000 nM	CC(COCCC(=O)N1CCN(c2ncc(C(F)(F)F)cn2)CC1)n1ncc2c(=O)[nH]ncc21 (centres unmarked) [Compound 169]
100 to 1000 nM	Cc1nc2c(=O)[nH]ncc2n1CCOCCC(=O)N1CCN(c2ncc(C(F)(F)F)cn2)CC1 [Compound 170]
≤ 100 nM	O=C(CCOCCn1nc(C(F)(F)F)c2c(=O)[nH]ncc21)N1CCN(c2nc3cc(Cl)ccc3o2)CC1 [Compound 171]
≤ 100 nM	O=C(CCOCCc1cccc2c(=O)[nH]ncc12)N1CCN(c2nc3cc(Cl)ccc3o2)CC1 [Compound 172]
≤ 100 nM	CC1(C)CN(C(=O)CCOCCn2nc(C(F)(F)F)c3c(=O)[nH]ncc32)CCN1c1ccc(C(F)(F)F)cn1 [Compound 173]
≤ 100 nM	CC(COCCC(=O)N1CCN(c2ccc(C(F)(F)F)cn2)CC1)n1nc(C(F)(F)F)c2c(=O)[nH]ncc21 (centres unmarked) [Compound 178]
≤ 100 nM	CC(COCCC(=O)N1CCN(c2ccc(C(F)(F)F)cn2)CC1)n1nc(C(F)(F)F)c2c(=O)[nH]ncc21 (centres unmarked) [Compound 179]
≤ 100 nM	O=C(CCOCCc1cccc2c(=O)[nH]ncc12)N1CCN(c2nc3ccc(F)cc3o2)CC1 [Compound 180]
≤ 100 nM	CC1(C)CN(C(=O)CCOCCn2nc(C(F)(F)F)c3c(=O)[nH]ncc32)CCN1c1ncc(C(F)(F)F)cn1 [Compound 182]
≤ 100 nM	O=C(CCOCCn1nc(C(F)(F)F)c2c(=O)[nH]ncc21)N1CCN(c2nc3ccc(F)cc3o2)CC1 [Compound 183]
100 to 1000 nM	O=C(CCOCCn1c(C(F)(F)F)nc2c(=O)[nH]ncc21)N1CCN(c2ncc(C(F)(F)F)cn2)CC1 [Compound 184]
≤ 100 nM	CC(COCCC(=O)N1CCN(c2ncc(Cl)cn2)CC1)n1nc(C(F)(F)F)c2c(=O)[nH]ncc21 (centres unmarked) [Compound 186]
≤ 100 nM	O=C(CCOCCn1nc(C(F)(F)F)c2c(=O)[nH]ncc21)N1CCN(c2nc3ccc(Cl)cc3o2)CC1 [Compound 191]
≤ 100 nM	N#Cc1ccc2nc(N3CCN(C(=O)CCOCCc4cccc5c(=O)[nH]ncc45)CC3)oc2c1 [Compound 192]
≤ 100 nM	CC1(C)CN(c2ncc(C(F)(F)F)cn2)CCN1C(=O)CCOCCn1nc(C(F)(F)F)c2c(=O)[nH]ncc21 [Compound 193]
≤ 100 nM	Cn1c(N2CCN(C(=O)CCOCCn3nc(C(F)(F)F)c4c(=O)[nH]ncc43)CC2)nc2ccccc21 [Compound 195]
≤ 100 nM	N#Cc1ccc2oc(N3CCN(C(=O)CCOCCn4nc(C(F)(F)F)c5c(=O)[nH]ncc54)CC3)nc2c1 [Compound 196]
100 to 1000 nM	O=C(CCOCCc1cccc2c(=O)[nH]ncc12)N1CCC(Oc2ccccc2)CC1 [Compound 197]
≤ 100 nM	O=C(CCOCCn1cc(C(F)F)c2c(=O)[nH]ncc21)N1CCN(c2ncc(C(F)(F)F)cn2)CC1 [Compound 198]
≤ 100 nM	O=C(CCOCCc1cccc2c(=O)[nH]ncc12)N1CCN(c2nc3cc(F)ccc3o2)CC1 [Compound 199]
≤ 100 nM	O=C(CCOCCn1cc(C(F)F)c2c(=O)[nH]ncc21)N1CCN(c2ccc(C(F)(F)F)cn2)CC1 [Compound 200]
